The values that follow come from the Deep4Chem optical property database.

A short description of the data set: solvent given as SMILES.
Where [1] appears, read: in O=P(c1ccccc1)(c1ccccc1)c1ccccc1Oc1ccccc1P(=O)(c1ccccc1)c1ccccc1.

Molecules are shown by their SMILES.

Take `CC(C)CCCN1c2ccccc2CCc2ccccc21`: the fluorescence lifetime is, setting by setting: (in CC#N) 0.89 ns; (in CO) 0.86 ns.
Turning to `CCCCN1/C(=C\c2c(-c3ccc(N(C)C)cc3)c(=O)c2=O)C=Cc2ccccc21`, the fluorescence lifetime was found to be 1.06 ns (in C1CCCCC1), 2.99 ns (in Cc1ccccc1) and 0.6 ns (in ClCCl).
As for `CCNc1ccc2c(c1)C(C)(C)C(=O)C=C2`, the fluorescence lifetime (in O) was determined as 3.9 ns.
For `N#Cc1ccc(/C=C/c2c3ccccc3cc3ccccc23)cc1`, the fluorescence lifetime (in C1CCOC1) was 0.82 ns; the fluorescence lifetime (in CC1CCCCC1) amounted to 3.01 ns; the fluorescence lifetime (in CC#N) was found to be 0.68 ns; the fluorescence lifetime (in CO) was determined as 0.6 ns; the fluorescence lifetime (in Cc1ccccc1) was found to be 2.12 ns; the fluorescence lifetime (in ClC(Cl)Cl) was determined as 0.82 ns.
For the molecule `O=C(c1ccc(C(=O)c2ccc(N3c4ccccc4Oc4ccccc43)cc2)cc1)c1ccc(N2c3ccccc3Oc3ccccc32)cc1`, under “in c1cc(-c2cccc(-n3c4ccccc4c4ccccc43)c2)cc(-n2c3ccccc3c3ccccc32)c1”, the fluorescence lifetime is 26 ns.
For `CCCCc1cc2cccc[n+]2[b-]2ccc(-c3cc[b-]4c(c3)c(CCCC)cc3cccc[n+]43)cc21`, under “in C1CCCCC1”, the fluorescence lifetime came to 3.5 ns.
Turning to `CCCCCCCCCCCCOc1cc2c3c(ccc4c5c(NC6CCCCC6)cc6c7c(ccc(c1c34)c75)C(=O)N(C1CCCCC1)C6=O)C(=O)N(C1CCCCC1)C2=O`, the fluorescence lifetime (in ClC(Cl)Cl) was determined as 0.8 ns.
For `COc1ccc(C(=O)NN2C3=C(CC4=C2CCCC4=O)C(=O)CCC3)cc1`, the fluorescence lifetime runs as follows: (in CC#N) 6.2 ns; (in CC(C)=O) 5.4 ns; (in CCCCCO) 6.1 ns; (in CO) 4.7 ns; (in ClC(Cl)Cl) 6.2 ns; (in ClCCl) 8.3 ns.
As for `Cc1c2ccc3c(C)[n+](C)ccc3c2cc[n+]1C`, the fluorescence lifetime (in CC#N) was determined as 5.7 ns.
For `Cc1ccc(-n2cccc2)cc1`, the fluorescence lifetime stood at 5.5 ns (in CC#N) and 4 ns (in CCCCCC).
As to `O=C1NC(=O)c2ccc(N3CCOCC3)c3cccc1c23`, the fluorescence lifetime runs as follows: (in C1CCOC1) 8.38 ns; (in ClC(Cl)Cl) 8.65 ns; (in ClCCl) 8.38 ns.
Molecule `N#Cc1cc2ccc(cc2)c2cccc3cccc(c4ccc(cc4)cc(C#N)c4ccc(cc4)c4cccc5cccc(c6ccc1cc6)c54)c32` displayed a fluorescence lifetime (in Cc1ccccc1) of 20.6 ns.
For the molecule `COc1ccc(O)c(-c2nc(C)c3n2CCCC3)c1`, the fluorescence lifetime (in ClCCl) was determined as 1.12 ns.
Same read-out and setting: to `O=c1oc2ccccc2cc1-c1ccc(-c2ccc(-c3cc4ccccc4oc3=O)cc2)cc1` belongs 9.47 ns; to `Cc1cc(C)c(-c2c3ccccc3c3ccc4cc5c(-c6c(C)cc(C)cc6C)c6ccccc6c6ccc7cc2c3c4c7c56)c(C)c1`, 11.5 ns.
`O=C1c2ccccc2-c2ccc(N3CCN(c4ccccc4)CC3)c3cccc1c23`: the fluorescence lifetime worked out at 7.85 ns (in C1CCCCC1); 2.59 ns (in C1CCOC1); 8.98 ns (in C1COCCO1); 0.09 ns (in CC1COC(=O)O1); 0.03 ns (in CC#N); 0.09 ns (in CC(C)=O). Besides, the fluorescence lifetime is, setting by setting: (in CCCCCCCCO) 0.29 ns; (in CCCCCO) 0.22 ns; (in CCCCO) 0.16 ns; (in CCCO) 0.22 ns; (in CCO) 0.07 ns; (in CCOC(C)=O) 2 ns. The fluorescence lifetime (in CN(C)C=O) is 0.06 ns; the fluorescence lifetime (in CO) came to 0.03 ns; the fluorescence lifetime (in CS(C)=O) was 0.06 ns; the fluorescence lifetime (in Cc1ccccc1) was found to be 9.06 ns; the fluorescence lifetime (in ClC(Cl)Cl) came out at 8.88 ns.
For the molecule `COc1cc2cc(-c3ccc(C(=O)OCOC(C)=O)cc3C(=O)OCOC(C)=O)oc2cc1N1CCOCCOCCN(c2cc3oc(-c4ccc(C(=O)OCOC(C)=O)cc4C(=O)OCOC(C)=O)cc3cc2OC)CCOCCOCC1`, the fluorescence lifetime (in O) amounted to 0.52 ns.
Consider `c1ccc2c(c1)Oc1ccccc1N2c1ccc(-c2nnc(-c3ccc(N4c5ccccc5Oc5ccccc54)cc3)o2)cc1`, for which the fluorescence lifetime was 21.2 ns (in Cc1ccccc1) and 11.2 ns under setting [1].
Turning to `FC(F)(F)C(F)(F)C(F)(F)C(F)(F)C(F)(F)C(F)(F)CCOc1nnc(Cl)nn1`, the fluorescence lifetime runs as follows: (in ClCCl) 153 ns; (in OCC(F)(F)F) 152 ns.
`Cc1c(-c2nc(-c3ccccc3)nc(-c3ccccc3)n2)ccc(-n2c3ccccc3c3cc4c(cc32)C2c3ccccc3C4c3ccccc32)c1C`: the fluorescence lifetime under setting [1] came out at 10 ns.
The molecule `O=C(O)c1ccccc1Nc1cccc(C(F)(F)F)c1` registered a fluorescence lifetime (in C1CCCCC1) of 2.93 ns; a fluorescence lifetime (in C1CCOC1) of 4.54 ns; a fluorescence lifetime (in C1COCCO1) of 3.97 ns; a fluorescence lifetime (in CC#N) of 4.04 ns; a fluorescence lifetime (in CCOC(C)=O) of 4.65 ns; a fluorescence lifetime (in CN(C)C=O) of 6.28 ns. The fluorescence lifetime by setting is: (in CO) 5.08 ns; (in ClC(Cl)Cl) 3.86 ns.
Take `COc1ccc(-c2ccc3c(c2)[Si](C)(C)c2cc(-c4ccc(OC)cc4)ccc2C=C3)cc1`: the fluorescence lifetime (in ClCCl) was determined as 1.4 ns.
Same read-out and setting: under `CC(C)(C)NC(=O)c1ccc(-c2cc3ccccc3s2)c2ccc3c4ccccc4c4ccccc4c3c12` stands 0.69 ns.
As to `CN(C)c1ccc2nc(-c3ccccc3)sc2c1Cl`, the fluorescence lifetime (in C1CCCCC1) turned out to be 0.1 ns.
Turning to `N#Cc1cc(-n2c3ccccc3c3ccccc32)c(C#N)cc1-n1c2ccccc2c2ccccc21`, the fluorescence lifetime (in c1ccc2c(c1)c1ccccc1n2P1(n2c3ccccc3c3ccccc32)=NP(n2c3ccccc3c3ccccc32)(n2c3ccccc3c3ccccc32)=NP(n2c3ccccc3c3ccccc32)(n2c3ccccc3c3ccccc32)=N1) turned out to be 34 ns.
For the molecule `CCC1=C(C)C2=Cc3c(I)c(I)cn3[B-](F)(F)[N+]2=C1C`, the fluorescence lifetime is, setting by setting: (in C1CCCCC1) 0.212 ns; (in CC(C)=O) 0.097 ns; (in CCO) 0.09 ns; (in CCOC(C)=O) 0.116 ns; (in CO) 0.087 ns; (in OCC(F)(F)F) 0.11 ns.
With `COc1ccc(C2=CC(c3ccc(OC)cc3)=[O+][B-](C(C)=O)(C(C)=O)O2)cc1`, the fluorescence lifetime came to 2.1 ns (in CC#N) and 2.1 ns (in ClC(Cl)(Cl)Cl).
Regarding `COc1ccc(/N=N/c2c(O)c3ccccc3n(C)c2=O)c(S(=O)(=O)O)c1`, under “in CS(C)=O”, the fluorescence lifetime was found to be 0.04 ns.
In turn, `N#Cc1nc2c3ccc(N(c4ccccc4)c4ccccc4)cc3c3cc(N(c4ccccc4)c4ccccc4)ccc3c2nc1C#N` had a fluorescence lifetime (in O=P(c1ccccc1)(c1ccccc1)c1cccc(-c2cc(-n3c4ccccc4c4ccccc43)cc(-n3c4ccccc4c4ccccc43)c2)n1) of 13.4 ns.
`Cc1ccc(-c2ccc(-c3ccc(-c4ccc(-c5ccc(C)cc5)cc4)c(/C(=C(/c4ccccc4)c4cc(-c5ccc(-c6ccc(C)cc6)cc5)ccc4-c4ccc(-c5ccc(C)cc5)cc4)c4ccccc4)c3)cc2)cc1` came in with a fluorescence lifetime (in C1CCOC1) of 8.5 ns.
For `COc1ccc(C2=CC(c3ccc4cc(N(C)C)ccc4c3)=[O+][B-](F)(F)O2)cc1`, the fluorescence lifetime (in C1CCOC1) came to 2.68 ns; the fluorescence lifetime (in CC#N) turned out to be 0.42 ns; the fluorescence lifetime (in CC(C)=O) was 0.72 ns; the fluorescence lifetime (in CS(C)=O) came out at 0.54 ns; the fluorescence lifetime (in Cc1ccccc1) is 2.96 ns; the fluorescence lifetime (in ClC(Cl)Cl) worked out at 3.54 ns. This molecule yielded a fluorescence lifetime (in ClCCl) of 2.71 ns.
For `c1ccc(-c2nnc(-c3ccc(N4c5ccccc5Oc5ccccc54)cc3)o2)cc1`, the fluorescence lifetime turned out to be 11 ns (in Cc1ccccc1) and 4.9 ns (in c1ccc(-n2c(-c3c(-n4c5ccccc5c5ccccc54)cccc3-n3c4ccccc4c4ccccc43)nc3ccccc32)cc1).
Molecule `c1ccc2[nH]ccc2c1` yielded a fluorescence lifetime (in O) of 4.49 ns.
Regarding `COc1ccc(Nc2nc(/C=C/c3ccccc3)[n+]([O-])c3c2CCCC3)cc1`, the fluorescence lifetime (in ClCCl) worked out at 8.2 ns.
Molecule `FC(F)(F)c1ccc(-c2nnc(-c3cc(-n4c5ccccc5c5ccccc54)c(-n4c5ccccc5c5ccccc54)cc3-c3nnc(-c4ccc(C(F)(F)F)cc4)o3)o2)cc1` showed a fluorescence lifetime (in Cc1ccccc1) of 19.1 ns.
On to `N#C/C(=C\c1ccc(C#N)cc1)c1nc(-c2ccc(Cl)cc2)cs1`, for which the fluorescence lifetime (in CC#N) was found to be 2.85 ns.
Molecule `CC(C)(C)c1ccc(C#Cc2cc3ccc4cc(C#Cc5ccc(C(C)(C)C)cc5)cc5ccc(c2)c3c45)cc1` returned a fluorescence lifetime (in ClCCl) of 37.1 ns.
Consider `COc1ccc(-c2nc(-c3ccccc3O)c(-c3ccccc3O)n2-c2ccc(C)cc2)cc1`, for which the fluorescence lifetime was 2.51 ns (in C1CCOC1), 1.6 ns (in CS(C)=O), 1.78 ns (in ClC(Cl)Cl) and 2.56 ns (in ClCCl).
Regarding `c1ccc(N(c2ccccc2)c2ccc(-c3cccc4nc5ccccc5cc34)cc2)cc1`, the fluorescence lifetime by setting is: (in CC#N) 6.83 ns; (in CCCCCC) 1.95 ns; (in CCOCC) 6.67 ns; (in ClCCl) 14.5 ns.
In the case of `CC1(C)c2ccccc2N(c2ccc(-c3ccc(C#N)cc3)cc2)c2ccccc21`, the fluorescence lifetime (in N#Cc1ccc2c(c1)c1ccccc1n2-c1cccc(-n2c3ccccc3c3ccccc32)c1) came out at 6.99 ns.
On to `[C-]#[N+]c1ccc(-c2ccc(N)cc2)cc1`, for which the fluorescence lifetime runs as follows: (in CC#N) 2 ns; (in CCOC(C)=O) 1.7 ns.
On to `CC1=[N+]2C(=C(c3cccs3)c3ccc(C)n3[B-]2(F)F)C=C1c1cc2n(c1)[B-](F)(F)[N+]1=CC=CC1=C2c1c(C)cc(C)cc1C`, for which the fluorescence lifetime (in C1CCCCC1) turned out to be 2.67 ns and the fluorescence lifetime (in CCOC(C)=O) came to 0.92 ns.
As to `Cc1ccc2nc3[nH]c(=O)[nH]c(=O)c3nc2c1`, the fluorescence lifetime is, setting by setting: (in CC#N) 0.6 ns; (in ClCCCl) 0.49 ns.
In the case of `CC(C)(C)c1ccc2c(c1)c1cc(C(C)(C)C)ccc1n2-c1ccc(C#Cc2ccc(C=C(C#N)C#N)cc2)cc1`, the fluorescence lifetime (in ClCCl) turned out to be 4.2 ns.
As to `Cc1ccccc1[B-]1(c2ccccc2C)n2nc(C(F)(F)F)cc2-c2c3ccccc3cc[n+]21`, the fluorescence lifetime by setting is: (in C1CCCCC1) 0.525 ns; (in Cc1ccccc1) 0.425 ns; (in ClCCl) 0.938 ns.
Where the note is “in CCCCCC”, `CC(C)(C)c1cc2ccc3cc(C(C)(C)C)cc4c(N(c5ccccc5)c5ccccc5)cc(c1)c2c34` displayed a fluorescence lifetime of 3.1 ns.
In the case of `COC(=O)c1noc(-c2ccccc2)c1Br`, the fluorescence lifetime (in C1CCCCC1) was determined as 0.49 ns.
In the case of `Nc1ccc2c(c1)Cc1ccccc1-2`, the fluorescence lifetime reads like this: (in C1CCCCC1) 5.3 ns; (in CC#N) 3.2 ns; (in CO) 4.5 ns; (in O) 2.1 ns.
